Measured values: US20240182449A1, “CRYSTALLINE FORMS OF AN MK2 INHIBITOR” (XinThera, Inc., priority 2022, published 2024)
≈ marks a conversion by molar mass, not a printed value. Where “and” joins values, the source holds several entries; their conditions need not be identical. Identical values can stand only once. Entries after “also recorded” stand apart in the source; their conditions may differ.

How the values were obtained:
[1] = Solubility estimation at RT by visual observation in selected solvent systems
Experimental: The solubility of compound 1 Form I and Form X was estimated at RT by visual observation in selected solvent systems. Approximately 5 mg solids were weighed into 8 mL glass vial, and then solvent was added stepwise until solids were dissolved completely or a total of solvent volume reached 5 mL.

Hygroscopicity by DVS = type: physicochemical
Experimental: DVS was performed on Form X, to evaluate its hygroscopicity and physical stability under different humidity.
Moisture sorption/desorption data were collected on a DVS instrument. Appropriate amount of sample was placed into a tared sample chamber and automatically weighed. The sample was analyzed with the setting parameters in the table below.

[2] = Solid-state stability (HPLC purity and XRPD); type: physicochemical; conditions: for solid-state stability (form change, purity): 7 days
Experimental: Solid-state stability of Form X was conducted at 60° C. (capped) and 40° C./75% RH (open) for 7 days. The stability sample was dissolved in diluent to prepare solution at ˜1 mg/mL for HPLC purity analysis. Solid samples were analyzed by XRPD to check the crystal form.

[3] = Mechanical stability (manual grinding, XRPD); type: physicochemical
Experimental: Appropriate amount of Form X was manually ground by pestle and mortar for about 2 minutes and 5 minutes, and then analyzed by XRPD.

[4] = Solubility in bio-relevant media (SGF, FaSSIF, FeSSIF) and water; type: physicochemical; conditions: for Solubility: 37° C.
Experimental: The solubility of Form X was measured in bio-relevant media (SGF, FaSSIF and FeSSIF) and water at 37° C. with 800 rpm for up to 24 hours. About 15 mg of Form X was weighed into sample vials and then 3 mL of three bio-relevant media and water were added to make suspensions, respectively. At 0.5, 2 and 24 hours, about 1 mL of each suspension was filtered, the filtrates were analyzed by HPLC and pH, and the filter cakes were analyzed by XRPD. Duplicate samples were prepared. […] A little higher solubility in FeSSIF was possibly due to the effect of bile salt.

pH solubility profile = type: physicochemical
Experimental: Different pH buffers (pH 1.0, 3.0, 5.0, 6.8 and 9.0) were prepared by method in Table 20. Then 10 mg of Form X was added into 2 mL of different buffers (pH=1.0, 3.0, 5.0, 6.8 and 9.0) to make suspensions. The suspensions were kept shaking with a speed of 1000 rpm at 25° C. for 4 and 24 hours. At each point, the suspensions were centrifuged, and the supernatant was inspected by HPLC/pH, and the wet cakes were analyzed by XRPD. Duplicate samples were prepared.

[5] = Slurry competition experiments (thermodynamic stability relationship); type: physicochemical; conditions: RT, also in pure water
Experimental: Slurry competition experiments were carried out between anhydrous and hydrates, to establish stability relationships. Appropriate amount of Form I was suspended in different solvents for pre-saturation at RT. Then the filtrate was added into equal amount of different forms, and the mixture was kept stirring at RT for certain time before XRPD tests.

[6] = Slurry conversion of Form I and Form X in solvents (XRPD result); type: physicochemical; conditions: for XRPD Result-Day 3: slurry at 80° C.
Experimental: Appropriate amount of Form I was added into different solvents to make suspensions, which were kept stirring at RT and 50° C. for 3 and 7 days, and at 80° C. for 3 days. Solid samples were collected by centrifugation and analyzed by XRPD. Forms I-IV, VII and VIII were obtained by slurry experiments of Form I.
Appropriate amount of Form X was added into different solvents to make suspensions, which were kept stirring at RT and 50° C. for 3 and 7 days, and at 80° C. for 3 days. Solid samples were collected by centrifugation and analyzed by XRPD.

[7] = slurry at 50° C., Acetone/water (1/3)
[8] = slurry at 50° C., MeOH/Water (1/4)
[9] = slurry at RT, Acetone/water (1/3)

[2H]C([2H])(Oc1cc(C)n(-c2c(C)cnc(-n3ccc(C(C)(C)O)n3)c2F)c(=O)c1Cl)c1ncc(F)cc1F [Form X]
estimated solubility compared with Form I [1]: decreased solubility in some solvents | XRPD after DVS (Hygroscopicity by DVS): No change | hygroscopicity (Hygroscopicity by DVS; DVS): non-hygroscopic | water uptake (Hygroscopicity by DVS; DVS, 80% RH): 0.11% | water uptake (Hygroscopicity by DVS; DVS, 90% RH): 0.16% | crystal form after DVS test (Hygroscopicity by DVS; after DVS test): remained unchanged | DVS Wt. Gain % (Hygroscopicity by DVS; at 80% RH): 0.11% | DVS Wt. Gain % (Hygroscopicity by DVS; at 90% RH): 0.16% | Hygroscopicity (DVS) (Hygroscopicity by DVS; classification in words): non-hygroscopic | Stability (physical) ([2]; 40° C./75% RH (open), 1 week): Physically stable at 40° C./75% RH (open) | XRPD Result ([2]; 40° C./75% RH (open), 1 week): Form X | Purity (area %) ([2]; 40° C./75% RH (open), 1 week, duplicate samples): 99.94 area % and 99.93 area % | solid-state stability (form change, purity) ([2]; 40° C./75% RH (open)): physically and chemically stable; also recorded: No form change or purity decrease | XRPD Result ([2]; 60° C. (capped), 1 week): Form X | Purity (area %) ([2]; 60° C. (capped), 1 week, duplicate samples): 99.93 area % and 99.94 area % | solid-state stability (form change, purity) ([2]; 60° C. (capped)): physically and chemically stable; also recorded: No form change or purity decrease | Stability (physical) ([2]; 60° C., 1 week): Physically stable at 40° C./75% RH (open) | Purity (area %) ([2]; Initial): 99.94 area % | XRPD Result ([2]; Initial): Form X | Crystallinity after manual grinding ([3]; manual grinding): with slight crystallinity decrease after | crystal form after grinding ([3]; manually ground about 2 and 5 minutes): remained unchanged with slight crystallinity decrease | XRPD of filter cake after solubility test ([4]; 0.5/2/24 h, all media (SGF, FaSSIF, FeSSIF, water)): ^a Form X remained unchanged during solubility test in all media | Solubility ([4]; FaSSIF, 0.5 h): 69 µg/mL (≈ 132 µM) | Solubility ([4]; FaSSIF, 2 h): 70 µg/mL (≈ 134 µM) | Solubility ([4]; FaSSIF, 24 h): 74 µg/mL (≈ 142 µM) | Solubility ([4]; FeSSIF, 0.5 h): 97 µg/mL (≈ 186 µM) | Solubility ([4]; FeSSIF, 2 h): 97 µg/mL (≈ 186 µM) | Solubility ([4]; FeSSIF, 24 h): 124 µg/mL (≈ 238 µM) | Solubility ([4]; SGF, 0.5 h): 74 µg/mL (≈ 142 µM) | Solubility ([4]; SGF, 2 h): 70 µg/mL (≈ 134 µM) | Solubility ([4]; SGF, 24 h): 66 µg/mL (≈ 126 µM) | Solubility ([4]; Water, 0.5 h): 74 µg/mL (≈ 142 µM) | Solubility ([4]; Water, 2 h): 74 µg/mL (≈ 142 µM) | Solubility ([4]; Water, 24 h): 70 µg/mL (≈ 134 µM) | crystal form after solubility test ([4]; all media, XRPD of filter cake): remained unchanged | XRPD of wet cake after pH solubility test (pH solubility profile; 4/24 h, all pH buffers): Unchanged | crystal form after pH solubility test (pH solubility profile; XRPD of wet cake): remained unchanged | Solubility (1T/2T, mg/mL) (pH solubility profile; pH 1.0, 25° C., 4 h): 0.074 mg/mL (≈ 142 µM) | Solubility (1T/2T, mg/mL) (pH solubility profile; pH 1.0, 25° C., 24 h): 0.075 mg/mL (≈ 144 µM) | pH-dependence of solubility (pH solubility profile; pH 1.0-9.0 buffers, 25° C.): no pH-dependence | Solubility (1T/2T, mg/mL) (pH solubility profile; pH 3.0 buffer, 25° C., 4 h): 0.060 mg/mL (≈ 115 µM) | Solubility (1T/2T, mg/mL) (pH solubility profile; pH 3.0 buffer, 25° C., 24 h): 0.073 mg/mL (≈ 140 µM) | Solubility (1T/2T, mg/mL) (pH solubility profile; pH 5.0 buffer, 25° C., 4 h): 0.061 mg/mL (≈ 117 µM) | Solubility (1T/2T, mg/mL) (pH solubility profile; pH 5.0 buffer, 25° C., 24 h): 0.060 mg/mL (≈ 115 µM) | Solubility (1T/2T, mg/mL) (pH solubility profile; pH 6.8 buffer, 25° C., 4 h): 0.060 mg/mL (≈ 115 µM) | Solubility (1T/2T, mg/mL) (pH solubility profile; pH 6.8 buffer, 25° C., 24 h): 0.060 mg/mL (≈ 115 µM) | Solubility (1T/2T, mg/mL) (pH solubility profile; pH 9.0 buffer, 25° C., 4 h): 0.060 mg/mL (≈ 115 µM) | Solubility (1T/2T, mg/mL) (pH solubility profile; pH 9.0 buffer, 25° C., 24 h): 0.062 mg/mL (≈ 119 µM) | thermodynamic stability in slurry competition of anhydrous forms and hydrates [5]: thermodynamically more stable even in pure water at room temperature; also recorded: thermodynamically stable even in pure water | XRPD Result Day 3 [6, 7]: Form X | XRPD Result Day 7 [6, 7]: Form X | XRPD Result Day 3 ([6]; slurry at 50° C., IPA): Form X | XRPD Result Day 7 ([6]; slurry at 50° C., IPA): Form X | XRPD Result Day 3 ([6]; slurry at 50° C., IPE): Form X | XRPD Result Day 7 ([6]; slurry at 50° C., IPE): Form X | XRPD Result Day 3 ([6]; slurry at 50° C., MTBE): Form X | XRPD Result Day 7 ([6]; slurry at 50° C., MTBE): Form III | XRPD Result Day 3 [6, 8]: Form X | XRPD Result Day 7 [6, 8]: Form X | XRPD Result Day 3 ([6]; slurry at 50° C., Toluene): Form X | XRPD Result Day 7 ([6]; slurry at 50° C., Toluene): Form X | XRPD Result Day 3 ([6]; slurry at 50° C., Water): Form X | XRPD Result Day 7 ([6]; slurry at 50° C., Water): Form X | XRPD Result-Day 3 ([6]; CYH): Form X | XRPD Result-Day 3 ([6]; Heptane): Form X | XRPD Result-Day 3 ([6]; IPA/Water (1/2)): Clear | XRPD Result-Day 3 ([6]; IPA/Water (1/3)): Form X | XRPD Result-Day 3 ([6]; IPAc/Heptane (1/2)): Form X | XRPD Result-Day 3 ([6]; MeCYH): Form X | XRPD Result-Day 3 ([6]; Water): Form X | XRPD Result Day 3 [6, 9]: Form X | XRPD Result Day 7 [6, 9]: Form X | XRPD Result Day 3 ([6]; slurry at RT, EtOH): Clear | XRPD Result Day 7 ([6]; slurry at RT, EtOH): Clear | XRPD Result Day 3 ([6]; slurry at RT, IPA): Form X | XRPD Result Day 7 ([6]; slurry at RT, IPA): Form X | XRPD Result Day 3 ([6]; slurry at RT, IPAc): Form X | XRPD Result Day 7 ([6]; slurry at RT, IPAc): Form X | XRPD Result Day 3 ([6]; slurry at RT, IPE): Form X | XRPD Result Day 7 ([6]; slurry at RT, IPE): Form X | XRPD Result Day 3 ([6]; slurry at RT, MIBK): Form X | XRPD Result Day 7 ([6]; slurry at RT, MIBK): Form X | XRPD Result Day 3 ([6]; slurry at RT, MTBE): Form III | XRPD Result Day 7 ([6]; slurry at RT, MTBE): Form III | XRPD Result Day 3 ([6]; slurry at RT, MeOH/water (1/4)): Form X | XRPD Result Day 7 ([6]; slurry at RT, MeOH/water (1/4)): Form X | XRPD Result Day 3 ([6]; slurry at RT, Toluene): Form X | XRPD Result Day 7 ([6]; slurry at RT, Toluene): Form X | XRPD Result Day 3 ([6]; slurry at RT, Water): Form X | XRPD Result Day 7 ([6]; slurry at RT, Water): Form X
